# Residues, ends and D or L forms follow the SMILES beside them.
# Test system: binding of PI 3-kinase holoenzyme to HGF/SF receptor
# Assay: Competition of phosphopeptides with PI 3-kinase holoenzyme (A549 cytosolic extracts) for association with recombinant HGF/SF receptor (PI 3-kinase activity assay)
# Set-up: species or system human
# Conditions: summary statement in the description
# Method: FIG. 3. Inhibition of binding of PI 3-kinase holoenzyme to HGF/SF receptor by tyrosine-phosphorylated peptides. The phosphopeptides which efficiently out-competed p85 (FIG. 1) were assayed for the ability to interfere with binding of the PI 3-kinase holoenzyme to the HGF/SF receptor. Cytosolic extracts from three days-starved A549 cells were pre-incubated with each of the phosphopeptides (10 μM) prior to incubation with the immobilized recombinant HGF/SF receptor. The presence of receptor-associated PI 3-kinase in the immunocomplexes was determined by PI 3-kinase activity assay, as described in Materials and Methods of Example 4. The position of the phosphatidylinositol-3-phosphate (PIP) product of the PI 3-kinase reaction is indicated.
# In vitro association experiments. Sf9 cells expressing the recombinant HGF/SF receptor (approximately 4×10^6 cells/point) were lysed 36 hours after infection in buffer A (10 mM Tris-HCl buffer pH 7.5, 10% glycerol, 1% Triton X-100, 150 mM NaCl, 5 mM EDTA), supplemented with 0.2 mM phenyl-methylsulfonyl fluoride, 1 μg/ml leupeptin, 0.1 TIU/ml aprotinin and 1 μg/ml pepstatin. […]
# The presence of the p85 subunit of the PI 3-kinase in the receptor immunoprecipitate was determined by: i) labelling of the receptor and associated proteins with [γ-^32 P]ATP by in vitro kinase assay; ii) Western immunoblotting; iii) PI 3-kinase activity assay. […]
smiles,measurement,value
CSCC[C@H](NC(=O)[C@@H](NC(=O)[C@H](CCC(=O)O)NC(=O)[C@@H](N)Cc1ccc(OP(=O)(O)O)cc1)C(C)C)C(=O)N[C@@H](CC(C)C)C(=O)N[C@@H](CCCCN)C(=O)N[C@@H](CS)C(=O)N[C@@H](Cc1c[nH]c2ccccc12)C(=O)O [H-Tyr*-Glu-Val-Met-Leu-Lys-Cys-Trp-OH] (HELM PEPTIDE1{[N[C@@H](Cc1ccc(OP(=O)(O)O)cc1)C(=O)[*:2]].E.V.M.L.K.C.W}$$$$V2.0),Binding to PI 3-kinase,capable of binding to PI 3-kinase

# — patent publication US5912183A, “Peptide inhibitors of mitogenesis and motogenesis” (Pharmacia & Upjohn S.p.A., priority 1993, dated 1999)
